From patent publication US20020042374A1, “METHOD OF TREATING INSULIN INSENSITIVITY AND SYNDROME X” (priority 1997, published 2002)
Read-outs that look alike come from different tables or passages of the source. Positions of bridges follow the written chain, without caps; N, C: chain ends. Non-standard residues stand in square brackets, D forms with d. Residues, ends and D or L forms follow the SMILES beside them.

Assays:
human SSTR-1 = human SSTR-1 (Homo sapiens, UniProt P30872); test: Somatostatin receptor binding assay, hSSTR-1
Chain of human SSTR-1 (P30872 whole entry): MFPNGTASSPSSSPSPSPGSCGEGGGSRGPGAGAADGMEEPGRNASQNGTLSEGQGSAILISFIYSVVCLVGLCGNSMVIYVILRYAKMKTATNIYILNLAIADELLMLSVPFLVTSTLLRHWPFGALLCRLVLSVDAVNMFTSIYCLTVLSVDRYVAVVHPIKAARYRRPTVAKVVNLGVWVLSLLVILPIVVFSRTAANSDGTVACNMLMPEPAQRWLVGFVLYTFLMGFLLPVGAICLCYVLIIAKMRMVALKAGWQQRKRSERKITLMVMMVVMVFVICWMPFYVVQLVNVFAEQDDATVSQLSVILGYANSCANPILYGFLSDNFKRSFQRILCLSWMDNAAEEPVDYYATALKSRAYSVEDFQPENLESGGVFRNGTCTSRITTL

human SSTR-2 = human SSTR-2 (Homo sapiens, UniProt P30874); test: Somatostatin receptor binding assay, hSSTR-2
Chain of human SSTR-2 (P30874 whole entry): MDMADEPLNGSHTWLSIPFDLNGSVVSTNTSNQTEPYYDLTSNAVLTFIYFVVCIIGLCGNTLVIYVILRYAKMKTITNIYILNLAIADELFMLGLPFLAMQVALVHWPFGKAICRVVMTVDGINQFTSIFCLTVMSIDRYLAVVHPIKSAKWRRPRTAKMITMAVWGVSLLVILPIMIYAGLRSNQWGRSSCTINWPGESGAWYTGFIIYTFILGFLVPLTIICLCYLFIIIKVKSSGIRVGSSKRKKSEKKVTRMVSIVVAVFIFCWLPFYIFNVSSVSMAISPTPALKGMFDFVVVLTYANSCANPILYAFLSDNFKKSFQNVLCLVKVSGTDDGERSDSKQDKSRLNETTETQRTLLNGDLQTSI

human SSTR-3 = human SSTR-3 (Homo sapiens, UniProt P32745); test: Somatostatin receptor binding assay, hSSTR-3
Chain of human SSTR-3 (P32745 whole entry): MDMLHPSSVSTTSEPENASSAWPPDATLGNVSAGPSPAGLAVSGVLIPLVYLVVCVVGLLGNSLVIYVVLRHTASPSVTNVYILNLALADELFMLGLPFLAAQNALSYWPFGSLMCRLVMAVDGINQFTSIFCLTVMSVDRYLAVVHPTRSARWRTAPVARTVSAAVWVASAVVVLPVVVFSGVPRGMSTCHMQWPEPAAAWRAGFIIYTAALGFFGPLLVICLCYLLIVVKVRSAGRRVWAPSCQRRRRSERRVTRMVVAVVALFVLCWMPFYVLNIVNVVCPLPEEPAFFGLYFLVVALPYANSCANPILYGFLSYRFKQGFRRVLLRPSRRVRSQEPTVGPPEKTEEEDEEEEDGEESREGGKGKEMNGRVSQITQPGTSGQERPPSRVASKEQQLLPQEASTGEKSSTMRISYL

human SSTR-4 = human SSTR-4 (Homo sapiens, UniProt P31391); test: Somatostatin receptor binding assay, hSSTR-4
Chain of human SSTR-4 (P31391 whole entry): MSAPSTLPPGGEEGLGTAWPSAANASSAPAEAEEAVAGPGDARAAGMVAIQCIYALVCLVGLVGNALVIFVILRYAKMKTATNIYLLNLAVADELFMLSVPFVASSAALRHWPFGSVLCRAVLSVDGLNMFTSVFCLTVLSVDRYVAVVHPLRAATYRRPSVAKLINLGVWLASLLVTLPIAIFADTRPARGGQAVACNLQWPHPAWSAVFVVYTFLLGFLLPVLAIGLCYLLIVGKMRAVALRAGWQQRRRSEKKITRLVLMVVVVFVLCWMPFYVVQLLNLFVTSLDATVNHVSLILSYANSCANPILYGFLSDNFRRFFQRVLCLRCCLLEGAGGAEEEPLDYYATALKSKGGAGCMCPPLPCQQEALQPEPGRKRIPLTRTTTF

human SSTR-5 = human SSTR-5 (Homo sapiens, UniProt P35346); test: Somatostatin receptor binding assay, hSSTR-5
Chain of human SSTR-5 (P35346 whole entry): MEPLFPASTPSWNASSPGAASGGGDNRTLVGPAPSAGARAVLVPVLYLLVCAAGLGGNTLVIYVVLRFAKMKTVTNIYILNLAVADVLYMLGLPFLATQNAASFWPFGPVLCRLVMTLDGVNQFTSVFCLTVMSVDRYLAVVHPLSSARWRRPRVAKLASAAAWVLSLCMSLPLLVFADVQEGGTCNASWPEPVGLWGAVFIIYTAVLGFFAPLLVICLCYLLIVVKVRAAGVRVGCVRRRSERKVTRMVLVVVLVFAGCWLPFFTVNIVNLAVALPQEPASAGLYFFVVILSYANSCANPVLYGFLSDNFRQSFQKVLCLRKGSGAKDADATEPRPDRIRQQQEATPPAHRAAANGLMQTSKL

[1] = tested on: fatty (fa/fa) Zucker rats; test: Insulin sensitivity study, oral glucose challenge after one week treatment; format: in vivo, rat; conditions: 3 mg/kg s.c. twice daily, 7 days
Experimental: Male fatty Zucker rats (Harlan-Olac, Bicester, Oxon, U.K.), which were 15-17 weeks old, were randomly divided into two groups. The animals were house in pairs in a normal 12 hour light:12 hour darkness cycle at 20±2° C. and fed a standard laboratory rat diet (Beekay rat and mouse diet, Bantin & Kingman, Hull, Humberside, U.K.) ad libitum. For the group assigned to receive drug treatment, the rats received BIM-23268C at 3 mg/kg, by subcutaneous injection, twice a day at 10:00 AM and 5:00 PM. The other group, the control group, was treated with a subcutaneous injection of 0.lml/100 g of saline twice a day at 10:00 AM and 5:00 PM. […] On the last day of treatment, at 5:00 PM food was removed, and the rats were fasted overnight.
A method for assessing insulin sensitivity is to administer an oral glucose challenge and monitoring the secretion of insulin and disposal of glucose from the blood stream over a 240 min period (Bergman, R. N., et al., Endocrine Review 6:45-86 (1985)). […] 20 μl blood samples were taken from tail vein (Abdel-Halim, S. M., et al., Diabetes 43:281-288 (1994)) at −60 min, −30 min, 0 min, 30 min, 60 min, 90 min, 120 min, and 240 min.
The 20 μl samples were taken into 380 μl of hemolysis reagents (Sigma, Poole, Dorset, UK) containing 50 mg/liter of digitonin (Cat# D-1407) and 100 mg/liter of Maleimide (M-3766). From this, 100 μl of the hemolysed blood sample was added to 0.9 ml of Tinder reagent (Sigma Enzymatic calorimetric assay for blood glucose, Cat# 315-100, Sigma Chemical Co. Ltd, Poole, Dorset, UK). Blood glucose was determined according to vendor's recommendation at 505 nm.
Insulin was measured by the conventional radioimmunoassay method as described (Dunmore, S., & Beloff-Chain, A., J Endocrinol. 92:15-21 (1982)). Samples were assayed in triplicates with a 1:30000 dilution of an insulin antiserum (from guinea pig)raised in the laboratory (Dunmore, S. J., et al., J. Endocrinol. 137:375-381 (1993), and using ^125I-labelled bovine insulin, iodinated by the chloramine T method (Sambrook, et al., Molecular Cloning- A Laboratory Manual, Ed. 2., Cold Spring Harbor Laboratory Press, 1989). Rat insulin (2000U/0.1 ml, Novo Nordisk Laboratories, Basingstoke, Hants, U.K.) was used as a standard in the assay. The standards and samples were diluted in assay buffer containing NaH2PO4 5.7 g/L, bovine serum albumin (Sigma A4378, Sigma Chemical Co. Ltd., Poole, Dorset, UK) 5.0 g/L, NaN3 1.0 g/L buffered to pH 7.4). Antibody-bound insulin was separated on from free insulin by the addition of a second antibody (donkey anti-guinea pig Ig) coated on cellulose, Sac-Cel (IDS, Boldon, Tyne & Wear, UK). The antibody-bound insulin precipitate was separated by centrifugation. Counts bound were measured on an LKB Rackgamma solid scintillation counter.

[2] = tested on: Obese (fa/fa) Zucker rats; test: Lipidemia study, plasma glycerol and triglycerides; format: in vivo, rat
Experimental: Obese (fa/fa) Zucker rats were treated as in example 1 above. On the last day of treatment (day 6), food was removed at 5:00 p.m., and the rats were fasted overnight. At 9:00 a.m. the next day, the animals were subjected to a glucose challenge, given as 0.8 gram/kg of glucose orally. Periodic 400 μl of blood samples were taken from the tail vein (Peterson, R. G., ILAR News, 32:16-19 (1990)) 60 min. and 30 min. before and at 30, 60, 90, and 120 min. after the administration of the glucose challenge (0.8 gram/kg orally). Aprotinin (Traysylol, Bayer UK, Hayward's Health, W. Sussex, U.K.) and heparin (Sigma Chemical Co., Poole, Dorset, U.K.) were added to the blood samples to a final concentration of 400 KIU/ml and 100 units/ml, respectively. Plasma fractions were prepared from these samples by centrifugation at 4000×G in a microfuge, for the estimation of triglycerides and glycerol. Samples were then stored at −80° C. until assayed.
Plasma glycerol and triglycerides were determined using the Sigma Enzymatic (Tinder) calorimetric assay kit (Cat #337-B, Sigma Chemical Co., Poole, Dorset, U.K.) and measuring absorbance at 540 nm in a spectrophotometer.

[3] = tested on: fatty (fa/fa) Zucker rats; conditions: 3 mg/kg s.c. twice daily, 6 days
[4] = 3 mg/kg s.c. twice daily, 6 days, samples 30 and 60 minutes before oral glucose challenge, FIG. 1/2
[5] = throughout the 2-hour test period after oral glucose challenge

`NCCCC[C@@H]1NC(=O)[C@@H](Cc2c[nH]c3ccccc23)NC(=O)[C@H](Cc2ccccc2)NC(=O)[C@H](Cc2ccccc2)NC(=O)[C@@H](N)CSSC[C@@H](C(N)=O)NC(=O)[C@H](Cc2ccccc2)NC(=O)[C@H](CO)NC1=O` [BIM-23284, H-Cys-Phe-Phe-D-Trp-Lys-Ser-Phe-Cys-NH2] (H-CFF[dW]KSFC-NH2; disulfide 1-8) gave a Ki (human SSTR-1) of 27.9 nM, a Ki (human SSTR-2) of 19.3 nM and a Ki (human SSTR-3) of 35.6 nM. The Ki (human SSTR-4) was 58.6 nM and the Ki (human SSTR-5) was 0.85 nM.
For `C[C@@H](O)[C@@H]1NC(=O)[C@H](CCCCN)NC(=O)[C@@H](Cc2c[nH]c3ccccc23)NC(=O)[C@H](Cc2ccc(O)cc2)NC(=O)[C@H](Cc2ccccc2)NC(=O)[C@@H](N)CSSC[C@@H](C(N)=O)NC(=O)[C@H](Cc2ccccc2)NC1=O` [BIM-23295, H-Cys-Phe-Tyr-D-Trp-Lys-Thr-Phe-Cys-NH2] (H-CFY[dW]KTFC-NH2; disulfide 1-8), the Ki (human SSTR-1) was 86.9 nM, the Ki (human SSTR-2) was 6.19 nM and the Ki (human SSTR-3) was 9.7 nM. It also gave a Ki (human SSTR-4) of 3.4 nM and a Ki (human SSTR-5) of 0.34 nM.
`C[C@@H](O)[C@@H]1NC(=O)[C@H](CCCCN)NC(=O)[C@@H](Cc2c[nH]c3ccccc23)NC(=O)[C@H](Cc2ccc(O)c(I)c2)NC(=O)[C@H](Cc2ccccc2)NC(=O)[C@@H](N)CSSC[C@@H](C(N)=O)NC(=O)[C@H](Cc2ccccc2)NC1=O` [BIM-23313, H-Cys-Phe-Tyr(I)-D-Trp-Lys-Thr-Phe-Cys-NH2] showed a Ki (human SSTR-1; membranes of transfected CHO-K1 cells, [125I-Tyr11]somatostatin-14 0.05 nM, read-out: Ki hSSTR-1) of 15.1 nM.
`C[C@@H](O)[C@@H]1NC(=O)[C@H](CCCCN)NC(=O)[C@@H](Cc2c[nH]c3ccccc23)NC(=O)[C@H](Cc2ccccc2)NC(=O)[C@H](Cc2ccccc2)NC(=O)[C@@H](N)CSSC[C@@H](C(N)=O)NC(=O)[C@H](Cc2ccccc2)NC1=O` [BIM-23268, H-Cys-Phe-Phe-D-Trp-Lys-Thr-Phe-Cys-NH2] (H-CFF[dW]KTFC-NH2; disulfide 1-8) gave a Ki (human SSTR-1; read-out: Ki hSSTR-1) of 1230 nM, a Ki (human SSTR-2; read-out: Ki hSSTR-2) of 15.1 nM and a Ki (human SSTR-5; read-out: Ki hSSTR-5) of 0.42 nM. For the same compound, the insulin-sensitivity [1] was “produced an improvement in insulin-sensitivity”, the glucose tolerance ([1]; oral glucose 0.8 g/kg after overnight fast) was “did not show an impairment in glucose tolerance” and the “glucose stimulated insulin secretion to the glucose challenge” value ([1]; oral glucose 0.8 g/kg after overnight fast, vs saline group) was “significant suppression”. For the same compound, the “plasma glucose profile versus untreated group” value ([1]; oral glucose 0.8 g/kg, up to 240 min) was “not significantly different”, the plasma glycerol [2, 4] was “significantly lowered” and the plasma triglycerides [2, 4] was “significantly lowered”. For the same compound, the hypertriglyceridemia ([2]; 6-day treatment, 3 mg/kg s.c. twice daily) was “effective in reducing hypertriglyceridemia”, the plasma glycerol [2, 5] was “significantly lower” and the plasma triglycerides [2, 5] was “significantly lower”. For the same compound, the “amount of food consumed over the entire treatment period versus control” value [3] was “no difference”, the “body weight gain versus control” value [3] was “lower” and the “toxic effect, appearance of treated group” value [3] was “appeared healthy”. The “group mean weight after six days” value ([3]; 413.6 at start of trial, control 414.09 to 418.89) was 413.6 and the average food consumption ([3]; control 26.0) was 25.9 g/rat/day.
